Experimental data reported in ChEMBL document CHEMBL4831550, “Fusidane-Type Antibiotics from the Marine-Derived Fungus Simplicillium sp. SCSIO 41513” (2021).
In brackets after ≈: the same amount, converted by molar mass.

The compounds below were run on Staphylococcus aureus (assay: Antibacterial activity against Staphylococcus aureus ATCC 6538 assessed as inhibition of bacterial growth incubated for 24 hrs by CLSI based microdilution method).
Format: functional
In the case of C/C(=C\CCC1=C2[C@H](C[C@@]3(C)[C@H]2C[C@@H](O)[C@H]2[C@@]4(C)CC[C@@H](O)[C@@H](CO)[C@@H]4CC[C@@]23C)OC1=O)C(=O)O, the MIC99.9 is reported as >100 µg/mL.
For CC(=O)O[C@H]1C[C@@]2(C)[C@@H](C[C@@H](O)[C@H]3[C@@]4(C)CC[C@@H](O)[C@@H](C)[C@@H]4CC[C@@]32C)/C1=C(\CC/C=C(\C)CO)C(=O)O, the MIC99.9 was 2.5 µg/mL (≈ 4.69 µM).
For C/C(=C\CCC1=C2[C@H](C[C@@]3(C)[C@H]2C[C@@H](O)[C@H]2[C@@]4(C)CC[C@@H](O)[C@@H](C)[C@@H]4CC[C@@]23C)OC1=O)CO, the MIC99.9 was >100 µg/mL.
CC(=O)O[C@H]1C[C@@]2(C)[C@@H](CC(=O)[C@H]3[C@@]4(C)CC[C@@H](O)[C@@H](C)[C@@H]4CC[C@@]32C)/C1=C(\CCC=C(C)C)C(=O)O was tested, and the MIC99.9 was 0.078 µg/mL (≈ 0.152 µM).
C/C(=C\CCC1=C2[C@H](C[C@@]3(C)[C@H]2C[C@@H](O)[C@H]2[C@@]4(C)CC[C@@H](O)[C@@H](C)[C@@H]4CC[C@@]23CO)OC1=O)C(=O)O was tested, and the MIC99.9 was >100 µg/mL.
With C/C(=C\CCC1=C2[C@H](C[C@@]3(C)[C@H]2C[C@@H](O)[C@H]2[C@@]4(C)CC[C@@H](O)[C@@H](C)[C@@H]4C[C@@H](O)[C@@]23C)OC1=O)C(=O)O the MIC99.9 was >100 µg/mL.
